Patent US9522141B2, “Indazole compounds as aldosterone synthase inhibitors” (Merck Sharp & Dohme Corp., priority 2012, dated 2016)

How the values were obtained:
human CYP11B1 = molecular target: T1, human CYP11B1 (Homo sapiens, UniProt P15538); assay: V79-Human-CYP11B1 cell assay; format: cell-based; details: V79 cells stably expressing human CYP11B1; 250 nM 11-deoxycortisol substrate; cortisol by HTRF
T1 construct: expressed in transfected cells; host or cells: V79 cells (clone V79-hCYP11B1-8CLC7)
T1 sequence (P15538 25-503): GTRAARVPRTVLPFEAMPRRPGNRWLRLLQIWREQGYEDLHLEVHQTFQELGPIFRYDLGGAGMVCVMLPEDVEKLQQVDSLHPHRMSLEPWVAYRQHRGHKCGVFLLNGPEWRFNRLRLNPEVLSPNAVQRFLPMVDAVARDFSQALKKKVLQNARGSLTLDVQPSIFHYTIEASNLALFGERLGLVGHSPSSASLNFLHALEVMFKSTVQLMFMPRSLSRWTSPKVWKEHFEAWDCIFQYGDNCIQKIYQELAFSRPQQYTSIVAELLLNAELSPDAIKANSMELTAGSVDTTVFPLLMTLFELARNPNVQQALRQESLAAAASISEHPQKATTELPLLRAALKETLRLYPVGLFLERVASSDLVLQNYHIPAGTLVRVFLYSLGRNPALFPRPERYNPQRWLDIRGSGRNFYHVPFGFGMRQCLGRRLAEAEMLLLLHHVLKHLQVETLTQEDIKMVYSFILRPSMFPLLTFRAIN
Description: (§1) Methods for V79-Human-CYP11B2 and V79-Human-CYP11B1 Assays: V79 cell lines stably expressing the either the human CYP11B2 or the human CYP11B1 enzyme were generated using a standard transfection protocol. V79 cells were transfected with plasmids pTriEx3-Hygro-hCyp11B2 or pTriEx3-Hygro-hCyp11B1 using Lipofectamine2000 reagent. […] Single cell clones were generated by […] in DMEM supplemented with 10% FBS and 400 μg/mL hygromycin until single colonies were obtained. […] The reaction was carried out for 3 hours at 37° C., 5% CO2 and was stopped by harvesting the supernatants. […] IC50s for the inhibitor were determined by plotting the amount of product formed against the concentration of inhibitor using sigmoidal dose-response curve (variable slope) fit in GraphPad.

human CYP11B2 = molecular target: T2, human CYP11B2 (Homo sapiens, UniProt P19099); assay: V79-Human-CYP11B2 cell assay; format: cell-based; details: V79 cells stably expressing human CYP11B2; 125 nM 11-deoxycorticosterone substrate; aldosterone by HTRF
T2 construct: expressed in transfected cells; host or cells: V79 cells (clone V79-hCYP11B2-CLE9)
T2 sequence (P19099 25-503): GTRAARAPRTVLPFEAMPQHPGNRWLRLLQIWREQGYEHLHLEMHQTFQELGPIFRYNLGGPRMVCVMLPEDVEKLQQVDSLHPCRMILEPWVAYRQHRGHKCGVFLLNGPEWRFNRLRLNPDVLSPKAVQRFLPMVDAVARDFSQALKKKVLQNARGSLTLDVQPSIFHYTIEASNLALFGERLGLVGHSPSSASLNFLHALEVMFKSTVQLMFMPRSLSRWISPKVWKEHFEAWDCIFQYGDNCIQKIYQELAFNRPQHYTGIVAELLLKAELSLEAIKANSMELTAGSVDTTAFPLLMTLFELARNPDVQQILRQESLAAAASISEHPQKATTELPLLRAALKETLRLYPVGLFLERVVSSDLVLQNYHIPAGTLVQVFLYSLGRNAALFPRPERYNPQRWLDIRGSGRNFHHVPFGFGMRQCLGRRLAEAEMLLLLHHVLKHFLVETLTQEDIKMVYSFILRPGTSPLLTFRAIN
Description: as §1

Row | Compound | IC50 (human CYP11B1) [nM] | IC50 (human CYP11B2) [nM]
1 | Fc1ccc2c(cnn2-c2cncc(C(F)(F)F)c2)c1 [Example 6, 5-fluoro-1-(5-(trifluoromethyl)pyridin-3-yl)-1H-indazole] | 1910 | 83
2 | Cc1nn(-c2cncc(C(F)(F)F)c2)c2cccc(F)c12 [Example 36, 4-fluoro-3-methyl-1-(5-(trifluoromethyl)pyridin-3-yl)-1H-indazole] | 257 | 17
3 | CCc1c(F)cncc1-n1ncc2c(F)cccc21 [Example 42, 1-(4-ethyl-5-fluoropyridin-3-yl)-4-fluoro-1H-indazole] | 1800 | 131
4 | CC(C)(O)c1cncc(-n2ncc3cc(F)c(F)cc32)c1 [Example 54, 2-(5-(5,6-difluoro-1H-indazol-1-yl)pyridin-3-yl)propan-2-ol] | 305 | 23
5 | CC(O)(c1cncc(-n2ncc3c2CCCC3)c1)C(F)(F)F (centres unmarked) [Example 75] | 498 | 7.7
6 | CN(C)c1cncc(-n2ncc3c(Cl)cccc32)n1 [Example 88, 6-(4-chloro-1H-indazol-1-yl)-N,N-dimethylpyrazin-2-amine] | 633 | 17.5

Now those with a lower IC50 (human CYP11B1), led by results:

Row | IC50 (human CYP11B1) [nM] | IC50 (human CYP11B2) [nM] | Compound
7 | 107 | 1.9 | Fc1cc2cnn(-c3cncc4ccccc34)c2cc1F [Example 46, 4-(5,6-difluoro-1H-indazol-1-yl)isoquinoline]
8 | 36.4 | 1.2 | CC(C)(O)c1cncc(-n2ncc3cccc(F)c32)c1 [Example 68, 2-(5-(7-fluoro-1H-indazol-1-yl)pyridin-3-yl)propan-2-ol]
9 | 98 | 2.2 | C[C@](O)(c1cncc(-n2ncc3c(C(F)(F)F)cccc32)c1)C(F)(F)F [Example 85, (S)-1,1,1-trifluoro-2-(5-(4-(trifluoromethyl)-1H-indazol-1-yl)pyridin-3-yl)propan-2-ol]
10 | 31.5 | 1.6 | Clc1cccc2c1cnn2-c1cncc(N2CCC2)n1 [Example 90, 1-(6-azetidin-1-ylpyrazin-2-yl)-4-chloro-1H-indazole]
